Assay results from patent US12122761B2, “2-azaspiro[3.4]octane derivatives as M4 agonists” (NOVARTIS AG, priority 2019, dated 2024).

Experiments:
[1] = biological target: T1, human cloned CHRM4 receptor (M4_CHO cells) (Homo sapiens, UniProt P08173); assay: CHRM4 Ca++ Flux Assay (agonist mode, FDSS 7000EX); assay type: cell-based; settings: for Emax: Percent Activity, read-out: M4 FDSS PA; for EC50: geometric mean if tested more than once, read-out: M4 FDSS EC50
T1 construct: expressed in transfected cells; host or cells: CHO-K1
T1 sequence (P08173 1-479): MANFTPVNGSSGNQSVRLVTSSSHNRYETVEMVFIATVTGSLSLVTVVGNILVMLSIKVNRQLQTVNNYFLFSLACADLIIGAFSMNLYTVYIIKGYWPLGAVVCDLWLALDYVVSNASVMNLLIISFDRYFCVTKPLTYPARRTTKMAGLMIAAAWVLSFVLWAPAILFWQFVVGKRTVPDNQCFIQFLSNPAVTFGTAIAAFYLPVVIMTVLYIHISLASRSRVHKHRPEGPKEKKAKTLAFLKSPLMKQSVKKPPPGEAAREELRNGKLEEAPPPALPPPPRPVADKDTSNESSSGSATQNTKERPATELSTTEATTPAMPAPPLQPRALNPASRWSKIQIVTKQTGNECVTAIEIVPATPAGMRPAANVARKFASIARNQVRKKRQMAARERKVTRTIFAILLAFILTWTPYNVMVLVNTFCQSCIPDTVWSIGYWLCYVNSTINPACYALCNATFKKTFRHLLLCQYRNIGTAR
Summary of the method: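 Agonist-mode response was expressed as percent of the Carbachol EC100 and fitted with four-parameter nonlinear regression over an 11-point triplicate dose series. Intracellular Ca++ was tracked for 3 min by fluorescent dye in CHO-K1 cells stably expressing human CHRM4. Cells were preincubated 60 min with 20 μM ATP in buffer containing 2.5 mM probenecid.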

[2] = biological target: T2, human cloned CHRM5 receptor (M5_CHO) (Homo sapiens, UniProt P08912); assay: CHRM5 Ca++ Flux Assay (agonist mode, FDSS 7000EX); assay type: cell-based; settings: for Emax: Percent Activity measured to EC100 of Carbachol, read-out: M5 FDSS PA; for EC50: agonist mode, geometric mean if tested more than once, read-out: M5 FDSS EC50
T2 construct: expressed in transfected cells; host or cells: CHO (M5_CHO)
T2 sequence (P08912 1-532): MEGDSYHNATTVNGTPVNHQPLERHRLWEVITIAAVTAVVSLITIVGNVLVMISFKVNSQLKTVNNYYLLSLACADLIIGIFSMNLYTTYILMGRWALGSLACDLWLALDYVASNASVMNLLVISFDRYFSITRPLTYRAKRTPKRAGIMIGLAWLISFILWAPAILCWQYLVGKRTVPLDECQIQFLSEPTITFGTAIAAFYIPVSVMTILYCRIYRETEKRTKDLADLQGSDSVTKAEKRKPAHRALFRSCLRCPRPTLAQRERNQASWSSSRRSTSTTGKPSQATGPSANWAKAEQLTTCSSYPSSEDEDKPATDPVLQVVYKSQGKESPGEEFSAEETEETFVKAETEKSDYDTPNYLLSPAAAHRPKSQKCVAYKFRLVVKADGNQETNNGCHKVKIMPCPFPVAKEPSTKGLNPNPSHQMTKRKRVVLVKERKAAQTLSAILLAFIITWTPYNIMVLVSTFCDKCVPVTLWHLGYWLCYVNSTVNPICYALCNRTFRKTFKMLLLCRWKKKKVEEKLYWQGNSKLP
Summary of the method: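 Agonist-mode calcium flux: 11-point dose responses, triplicate wells, fluorescence followed for 3 minutes. Cells are M3_CHO or M5_CHO lines (human receptors) with Ca++ indicator in probenecid-containing HEPES/HBSS buffer. Percent activity is referenced to carbachol EC100, and curves come from four-parameter nonlinear regression.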

| SMILES | Emax [1] | EC50 [1] | Emax [2] | EC50 [2] |
| --- | --- | --- | --- | --- |
| O=C(C1COC1)N1CC2(CC[C@@H](N3CCC(c4ccccc4OCCC4COC4)CC3)C2)C1 [Example 7KK, (R)-oxetan-3-yl(6-(4-(2-(2-(oxetan-3-yl)ethoxy)phenyl)piperidin-1-yl)-2-azaspiro[3.4]octan-2-yl)methanone] | 47% | 0.002 µM | 0% | > 25 µM |
| CC(C)(O)COc1ccccc1C1CCN([C@@H]2CCC3(C2)CN(C(=O)C2COC2)C3)CC1 [Example 7L, (R)-(6-(4-(2-(2-hydroxy-2-methylpropoxy)phenyl)piperidin-1-yl)-2-azaspiro[3.4]octan-2-yl)(oxetan-3-yl)methanone] | 58% | 0.02 µM | 0% | > 25 µM |
| O=C(C1COC1)N1CC2(CC[C@@H](N3CCC(c4ccccc4OC(F)(F)F)CC3)C2)C1 [Example 12A, (R)-oxetan-3-yl(6-(4-(2-(trifluoromethoxy)phenyl)piperidin-1-yl)-2-azaspiro[3.4]octan-2-yl)methanone] | 73% | 0.002 µM | 0% | > 25 µM |
